The values that follow come from patent US20250161238A1, “NMDAR Antagonists Prevent Ageing and Aging-Associated Conditions and Diseases Through Increasing 20S Proteasome Activity” (priority 2022, published 2025).

One test concerns the target T1, 26S proteasome (Homo sapiens, UniProt P28072+P28074+Q99436).
T1 construct: endogenous in cells; host or cells: crude cell lysate
T1 sequence (P28074 60-263): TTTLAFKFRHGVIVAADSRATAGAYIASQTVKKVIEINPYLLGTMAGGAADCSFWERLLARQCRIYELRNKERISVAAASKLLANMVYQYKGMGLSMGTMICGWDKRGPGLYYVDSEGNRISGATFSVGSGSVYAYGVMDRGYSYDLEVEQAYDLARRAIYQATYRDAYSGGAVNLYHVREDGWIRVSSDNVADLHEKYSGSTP
T1 sequence (Q99436 44-277): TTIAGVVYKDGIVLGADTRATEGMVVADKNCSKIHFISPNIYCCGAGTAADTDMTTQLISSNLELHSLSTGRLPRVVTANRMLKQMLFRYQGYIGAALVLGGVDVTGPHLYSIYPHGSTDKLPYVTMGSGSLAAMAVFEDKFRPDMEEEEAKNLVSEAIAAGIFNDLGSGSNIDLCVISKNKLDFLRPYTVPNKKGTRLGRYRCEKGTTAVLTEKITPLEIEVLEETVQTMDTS
T1 sequence (P28072 1-239): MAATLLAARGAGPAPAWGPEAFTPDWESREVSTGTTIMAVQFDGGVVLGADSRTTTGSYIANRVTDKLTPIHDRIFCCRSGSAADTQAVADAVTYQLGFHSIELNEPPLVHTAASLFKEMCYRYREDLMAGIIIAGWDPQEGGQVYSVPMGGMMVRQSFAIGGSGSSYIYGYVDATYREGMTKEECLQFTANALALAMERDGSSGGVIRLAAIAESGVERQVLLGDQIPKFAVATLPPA
As to the kind of experiment: Proteasome activity assay with cell lysate and fluorogenic substrates. The format is biochemical. The following applies: cell lysate. On the procedure: The activity of the 26S proteasome was measured by following steps. Aliquots of 2×10^6 cells were lysed with glass beads (Sigma) at 4° C. in lysis buffer containing 50 mM Tris-HCl (pH 7.5), 5 mM MgCl2, 1 mM DTT and 250 mM sucrose, and the protein concentration of cleared supernatants was measured by BCA protein assay reagent (Pierce). Ten micrograms of total protein was diluted with 26S proteasome assay buffer in a 96-well microtiter plate (BD Falcon), and incubated with fluorogenic substrates including Suc-LLVY-AMC, Z-LLE-AMC, and Ac-RLR-AMC Ac-RLR-AMC (Cayman-U.S.A.) were used to measure chymotrypsin, caspase-, and trypsin-like proteasome activity, respectively. Fluorescence released by AMC fluorescence was monitored on a microplate fluorometer (Biotek instrument-synergy HT) every 5 min at 37° C. for 1 h.

The subject of test [1] is primary human fibroblast cells. As to the kind of experiment: MTT assay of primary human fibroblast cells. The format is cell-based. Conditions: cells set up at passage 8. From the text:
(§1) First, primary human fibroblast cells were divided into two as control and NMDAR added group at the 4th passage and followed under the same condution until the 10th passage.
Cellular senescence is defined as a complete and irreversible loss of replicative capacity in primary somatic cells. (hayflick 1961). Therefore, MTT assay is used to measure cellular metabolic activity as an indicator of cell viability and proliferation in cells set up at passage 8.

The subject of test [2] is primary human fibroblast cells. The experiment in a line: SA β-gal staining of primary human fibroblast cells. The test is classed as cell-based. Conditions: passage 10.
Excerpt: as §1
Therefore cellular senescence were investigated by SA β-gal staining in cells at passage 10.

Test [3] has as its system primary human fibroblast cells. As to the kind of experiment: Nile red staining of lipid droplets in primary fibroblast cells. The format is cell-based. The following applies: late passage. From the text: In another experiment, the amount of intracellular lipid droplets as indicator of fat metabolism were investigated in senescent cells with nile red staining in cells at the late passage. Nile red is a lipophilic stain which stain intracellular lipid droplets and proteins. Lipid droplets are highly dinamic cellular organelles involved in the storage and the metabolism of neutral lipids.

The subject of another test is oxidized proteins. As to the kind of experiment: Oxidation status of proteins in mouse tissues (DNP-hydrazone western blot). The test is classed as in vivo. Conditions: 24 month old mice.
For the next test, the system named is amyloid. The experiment in a line: Amyloid staining of mouse tissues. The format is in vivo. The following applies: mice at 22 months. The source says:
In the next study, the effects of NMDAR blocker on amyloid accumulation in brain, liver, and kidney of mice with the presence of memantine and control mice groups at 22 months were investigated by amyloid staining.
(§2) Whole frozen tissues were sectioned with a microtome and fixed in 4% paraformaldehyde, Tissues were washed in PBS and the individual staining methods used in accordance with the manufacturer's recommendations. Total pixels from fluorescence in the images were quantified using Adobe Photoshop software CS2 (Adobe Systems), and normalized to a nuclear stain.

In the next test the test system is melanin and lipofuscin. As to the kind of experiment: Melanin and lipofuscin staining of mouse tissues. Conditions: mice at 22 months. The test is classed as in vivo.
Excerpt: as §2

In the next test the test system is mice with GD symptoms. The following applies: cited from earlier work.
The test system of another test is NMDA receptor. Conditions: cited from earlier work.
Test [4] addresses T2, proteasome (Homo sapiens, UniProt P28072+P28074+Q99436).
T2 sequence (P28074 60-263): T1 sequence (P28074 60-263)
T2 sequence (Q99436 44-277): T1 sequence (Q99436 44-277)
T2 sequence (P28072 1-239): T1 sequence (P28072 1-239)
The experiment in a line: In-Cell Fluorogenic Proteasome Assay, T98G. The test is classed as cell-based. On the set-up: endogenous in cells; host or cells: T98G (A10), digitonin/Tween-permeabilised whole cells. The following applies: whole T98G cell. The method, then:
(§3) For a 96-well plate format, 8×10^3 cells per well were seeded. 24 hours later medium was changed with NMDAR blocker containing medium. Two hours later 100 μl of 2× flourescence cell buffer: (1 ml 1M tris hcl ph: 7.5, 500 μl 1M KCL, 200 μl […], 200 μl 0.1M MgCL2, 50 μl % 0.2 tween 20, 75 μl digitonin 20 mg/ml in DMSO ChemCruz cat no: sc-280675, 10 μl flourescence substrates including Suc-LLVY-AMC, Z-LLE-AMC, and Ac-RLR-AMC Ac-RLR-AMC, 8.1 ml H2O). After incubation at room temperature for a 5 minutes the flourescence of each sample were measured in a flourescence spectrometer (Biotek instrument-Synergy HT).

Test [5] deals with T2, proteasome. As to the kind of experiment: In-Cell Fluorogenic Proteasome Assay, HepG2. On the set-up: endogenous in cells; host or cells: HepG2 (A9), T98G (A10), digitonin/Tween-permeabilised whole cells. The format is cell-based. Conditions: for trypsin, chemotrypsin and caspase-like proteasome activities: whole HepG2 cell. The method, then: as §3

“Also recorded” adds a separate entry of the source.

As for `CC12CC3CC(C)(C1)CC(N)(C3)C2` [memantine, 3,5-dimethyladamantan-1-amine], the “trypsin, chemotrypsin and caspase-like proteasome activity” value at 26S proteasome was “no effects”. Besides, in test [1], the “proliferation (MTT assay)” value is reported as “higher”. In addition, in test [2], the “SA β-gal stained cells, control cells compared to treated cells” value was found to be 1.8 fold. Further, the “Nile red flourescence (intracellular lipid droplets)” value in [3] is recorded as “more flourescence”. The “oxidation of protein from lung tissue” value in the test on oxidized proteins is “No significant change”. Besides, the “Oxidized proteins in liver, brain, kidney, skin and pancreas” value with oxidized proteins (memantin for 12 months) is “reduced”. In the test with amyloid, the “amount of amyloid in brain tissue” value is listed as “most significant difference”; the “amount of amyloid in liver and kidney” value was “statistically significant decrease”. For the same compound, in the test on melanin and lipofuscin, the “amount of lipofuscin (liver)” value was “statistically decreased” and the “amount of melanin (skin)” value is reported as “statistically decreased”. In addition, the “life span of mice with Gaucher disease symptoms” value in the test with mice with GD symptoms (A/J, C3H/HeJ, DBA/2J, C57BL6/JolaHsd, CBE 25 mg/kg day) is on record as “dramatically extended; also recorded: extend the lifespan”. Also, the “life span with memantine dose increased by 10 fold” value in the test with mice with GD symptoms (mouse, in vivo) was “increases the life span of mice even more”. For the same compound, in the test with NMDA receptor, the “block of NR2C and NR2D Subunits” value is recorded as “preferentially blocks”; the “effects at NR2A” value is given as “weak effects”; the “potency at NR1A/2B” value is recorded as “intermediate potency”. In addition, the “levels at which the mechanism of action is specific for antagonism of the NMDA receptor” value in the test with NMDA receptor (does not affect other ligand-gated or Voltage gated channels) is 1 to 10 µM. For the same compound, the “trypsin, chemotrypsin and caspase-like proteasome activities” value at proteasome [4] is on record as “increased”. In addition, on proteasome [5] (HepG2), the “chemotrypsin activity of proteasome in the presence of RA190” value is “very similar to the ketamin results”. The “trypsin, chemotrypsin and caspase-like proteasome activities” value at proteasome [5] was “increased”.
Take `CNC1(c2ccccc2Cl)CCCCC1=O` (centres unmarked) [ketamin, 2-(2-chlorophenyl)-2-(methylamino)-cyclohexanone]: the “trypsin, chemotrypsin and caspase-like proteasome activity” value on 26S proteasome is given as “no effects”. In test [1], the “proliferation (MTT assay)” value is listed as “higher”. Further, the “SA β-gal stained cells, control cells compared to treated cells” value in test [2] was found to be 2.6 fold. Besides, the “Nile red flourescence (intracellular lipid droplets)” value in test [3] was “more flourescence”. The “trypsin, chemotrypsin and caspase-like proteasome activities” value on proteasome [4] and at proteasome [5] was “increased” throughout. The “chemotrypsin activity of proteasome” value at proteasome [5] (whole cell, substance alone) is on record as “depending on the amount of the drugs”.
